The text below walks through data of patent US12692254B2, “Benzimidazole inhibitors of PAD enzymes” (BRISTOL-MYERS SQUIBB COMPANY, priority 2018, dated 2026).

The assay deals with human PAD4 (hPAD4) (Homo sapiens, UniProt Q9UM07). In words: RFMS human PAD4 functional assay (rapid-fire mass spectrum). The class given is biochemical. The following applies: 5 nM hPAD4 enzyme, 250 μM BAEE, 50 μM Calcium; 30 min preincubation, 90 min reaction at 37° C. A digest of the protocol: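 PAD4 (10 nM) preincubated 30 min with compound (top final 50 μM), then BAEE substrate added in pH 7.5 HEPES buffer with DTT, 50 μM calcium, TPEN; 90 min at 37° C. After TCA quench, citrulline derivatized with phenyl glyoxal (4 mM final, 30 min, 37° C) and quantified by RapidFire MS against internal standard.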
Sequence of human PAD4 (hPAD4) (Q9UM07 whole entry): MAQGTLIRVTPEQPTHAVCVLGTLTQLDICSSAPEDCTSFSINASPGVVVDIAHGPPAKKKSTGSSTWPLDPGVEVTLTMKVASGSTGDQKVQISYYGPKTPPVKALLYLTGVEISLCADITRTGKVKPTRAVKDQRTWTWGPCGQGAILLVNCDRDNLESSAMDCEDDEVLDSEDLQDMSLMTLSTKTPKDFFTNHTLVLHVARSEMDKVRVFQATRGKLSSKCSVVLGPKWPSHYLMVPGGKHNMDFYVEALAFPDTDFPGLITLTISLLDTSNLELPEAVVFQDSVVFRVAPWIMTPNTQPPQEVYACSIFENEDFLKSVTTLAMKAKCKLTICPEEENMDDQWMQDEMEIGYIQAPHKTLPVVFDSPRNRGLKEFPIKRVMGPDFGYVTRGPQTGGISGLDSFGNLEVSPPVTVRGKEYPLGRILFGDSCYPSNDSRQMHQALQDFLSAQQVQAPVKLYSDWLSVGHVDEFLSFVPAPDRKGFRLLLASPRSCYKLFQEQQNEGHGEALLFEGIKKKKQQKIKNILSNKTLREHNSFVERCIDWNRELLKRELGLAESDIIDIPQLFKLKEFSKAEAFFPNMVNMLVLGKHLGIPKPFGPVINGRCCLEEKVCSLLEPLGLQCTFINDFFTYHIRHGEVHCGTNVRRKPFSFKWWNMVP

The term IC50 denotes the concentration needed to halve the response being measured. On to `COc1cc(C(=O)N2C[C@H](N)C[C@@H](F)C2)cc2nc(-c3cc4ccccc4n3CC3CC3)n(Cc3csc(C)n3)c12` [Example 285, (3R,5R)-1-{2-[1-(cyclopropylmethyl)-1H-indol-2-yl]-7-methoxy-1-[(2-methyl-1,3-thiazol-4-yl)methyl]-1H-1,3-benzodiazote-5-carbonyl}-5-fluoropiperidin-3-amine], for which the IC50 worked out at 1020 nM.

Consider `COc1cc(C(=O)N2C[C@H](N)C[C@@H](F)C2)cc2nc(-c3cc4cccnc4n3CC3CC3)n(Cc3ccn(C)n3)c12` [Example 516, (3R,5R)-1-{2-[1-(cyclopropylmethyl)-1H-pyrrolo[2,3-b]pyridin-2-yl]-7-methoxy-1-[(1-methyl-1H-pyrazol-3-yl)methyl]-1H-1,3-benzodiazole-5-carbonyl}-5-fluoropiperidin-3-amine], for which the IC50 amounted to 574 nM.

Consider `COc1cc(C(=O)N2CC3CCC2[C@@H]3N)cc2nc(-c3cc4cccnc4n3CC3CC3)n(Cc3cnn(-c4cccc(O)n4)c3)c12` (stereo partly drawn) [Example 353, 6-[4-({5-[(7R)-7-amino-2-azabicyclo[2.2.1]heptane-2-carbonyl]-2-[1-(cyclopropylmethyl)-1H-pyrrolo[2,3-b]pyridin-2-yl]-7-methoxy-1H-1,3-benzodiazol-1-yl}methyl)-1H-pyrazol-1-yl]pyridin-2-ol], for which the IC50 is 20 nM.

As to `COc1cc(C(=O)N2C[C@H]3CC[C@@H]2[C@@H]3N)cc2nc(-c3cc4cccnc4n3CC3CC3)n(C3CN(c4ccccc4)C3)c12` [Example 81, (1R,4R,7R)-2-{2-[1-(cyclopropylmethyl)-1H-pyrrolo[2,3-b]pyridin-2-yl]-7-methoxy-1-(1-phenylazetidin-3-yl)-1H-1,3-benzodiazole-5-carbonyl}-2-azabicyclo[2.2.1]heptan-7-amine], the concentration for half-maximal inhibition (IC50) is 403 nM.

For `COc1cc(C(=O)N2CC3CCC2C3N)cc2nc(-c3cc4cccnc4n3CC3CC3)n(CC3CCN(C(=O)c4ccc(C#N)cc4)C3)c12` [Example 201, 4-[(3S)-3-({5-[(1R,4R,7R)-7-amino-2-azabicyc1o[2.2.1]heptane-2-carbonyl]-2-[1-(cyclopropylmethyl)-1H-pyrrolo[2,3-b]pyridin-2-yl]-7-methoxy-1H-1,3-benzodiazol-1-yl}methyl)pyrrolidine-1-carbonyl]benzonitrile], the half-inhibitory concentration (IC50) amounted to 18 nM.

Turning to `COc1cc(C(=O)N2CC3CCC2[C@@H]3N)cc2nc(-c3cc4cccnc4n3CC3CC3)n(Cc3cn[nH]n3)c12` (stereo partly drawn) [Example 485, (7R)-2-{2-[1-(cyclopropylmethyl)-1H-pyrrolo[2,3-b]pyridin-2-yl]-7-methoxy-1-[(2H-1,2,3-triazol-4-yl)methyl]-1H-1,3-benzodiazole-5-carbonyl}-2-azabicyclo[2.2.1]heptan-7-amine], the concentration for half-maximal inhibition (IC50) is 47 nM.

With `COc1cc(C(=O)N2C[C@H]3CC[C@@H]2[C@@H]3N)cc2nc(-c3cc4cccnc4n3CC3CC3)n(CC3CN(C(=O)c4cnc(NCC(C)(C)O)nc4)C3)c12` [Example 121, 1-({5-[3-({5-[(1R,4R,7R)-7-amino-2-azabicyclo[2.2.1]heptane-2-carbonyl]-2-[1-(cyclopropylmethyl)-1H-pyrrolo[2,3-b]pyridin-2-yl]-7-methoxy-1H-1,3-benzodiazol-1-yl}methyl)azetidine-1-carbonyl]pyrimidin-2-yl}amino)-2-methylpropan-2-ol], the IC50 came out at 95 nM.

On to `COc1cc(C(=O)N2CC3CCC2[C@@H]3N)cc2nc(-c3cc4cccnc4n3CC3CC3)n(C[C@@H]3CCN(c4nccnc4C#N)C3)c12` (stereo partly drawn) [Example 212, 3-[(3R)-3-({5-[(1R,4R,7R)-7-amino-2-azabicyclo[2.2.1]heptane-2-carbonyl]-2-[1-(cyclopropylmethyl)-1H-pyrrolo[2,3-b]pyridin-2-yl]-7-methoxy-1H-1,3-benzodiazol-1-yl}methyl)pyrrolidin-1-yl]pyrazine-2-carbonitrite], for which the IC50 came out at 81 nM.

Consider `COc1cc(C(=O)N2C[C@H]3CC[C@@H]2[C@@H]3N)cc2nc(-c3cc4ccccc4n3CC3CC3)n(Cc3ccccn3)c12` [Example 280, (1R,4R,7R)-2-{2-[1-(cyclopropylmethyl)-1H-indol-2-yl]-7-methoxy-1-[(pyridin-2-yl)methyl]-1H-1,3-benzodiazole-5-carbonyl}-2-azabicyclo[2.2.1]heptan-7-amine], for which the IC50 came out at 555 nM.

Turning to `COc1cc(C(=O)N2CC3CCC2[C@@H]3N)cc2nc(-c3cc4cccnc4n3CC3CC3)n(Cc3cnn(-c4cncc(C#N)c4)c3)c12` (stereo partly drawn) [Example 346, 5-[4-({5-[(7R)-7-amino-2-azabicyclo[2.2.1]heptane-2-carbonyl]-2-[1-(cyclopropylmethyl)-1H-pyrrolo[2,3-b]pyridin-2-yl]-7-methoxy-1H-1,3-benzodiazol-1-yl}methyl)-1H-pyrazol-1-yl]pyridine-3-carbonitrile], the IC50 stood at 61 nM.

As to `COc1cc(C(=O)N2C[C@H]3CC[C@@H]2[C@@H]3N)cc2nc(-c3cc4cccnc4n3CC3CC3)n(CC3CN(C(=O)c4ccnc(C#N)c4)C3)c12` [Example 183, 4-[3-({5-[(1R,4R,7R)-7-amino-2-azabicyclo[2.2.1]heptane-2-carbonyl]-2-[1-(cyclopropylmethyl)-1H-pyrrolo[2,3-b]pyridin-2-yl]-7-methoxy-1H-1,3-benzodiazol-1-yl}methyl)azetidine-1-carbonyl]pyridine-2-carbonitrile], the half-maximal inhibitory concentration (IC50) is 276 nM.

As for `COc1cc(C(=O)N2CC3CCC2[C@@H]3N)cc2nc(-c3cc4ccccc4n3CC3CC3)n(CC3CN(C(=O)c4ccn(C)c(=O)c4)C3)c12` (stereo partly drawn) [Example 433, 4-[3-({5-[(7R)-7-amino-2-azabicyclo[2.2.1]heptane-2-carbonyl]-2-[1-(cyclopropylmethyl)-1H-indol-2-yl]-7-methoxy-1H-1,3-benzodiazol-1-yl}methyl)azetidine-1-carbonyl]-1-methyl-1,2-dihydropyridin-2-one], the IC50 came to 31 nM.

For the compound `COc1cc(C(=O)N2CC3CCC2[C@@H]3N)cc2nc(-c3csc4ccc(Cl)cc34)n(CC3CN(c4ccnc(C(N)=O)n4)C3)c12` (stereo partly drawn) [Example 320, 4-[3-({5-[(1R,4R,7R)-7-amino-2-azabicyclo[2.2.1]heptane-2-carbonyl]-2-(5-chloro-1-benzothiophen-3-yl)-7-methoxy-1H-1,3-benzodiazo1-1-yl}methyl)azetidin-1-yl]pyrimidine-2-carboxamide], the IC50 is 1350 nM.

For the compound `Cn1cc(Cn2c(-c3cc4cccnc4n3CC3CC3)nc3cc(C(=O)N4CC5CCC4[C@@H]5N)cc(Cl)c32)cn1` (stereo partly drawn) [Example 493, (7R)-2-{7-chloro-2-[1-(cyclopropylmethyl)-1H-pyrrolo[2,3-b]pyridin-2-yl]-1-[(1-methyl-1H-pyrazol-4-yl)methyl]-1H-1,3-benzodiazole-5-carbonyl}-2-azabicyclo[2.2.1]heptan-7-amine], the IC50 was found to be 83 nM.

Take `CCn1cc(Cn2c(-c3cc4ccccc4n3CC3CC3)nc3cc(C(=O)N4CC5CCC4[C@@H]5N)cc(OC)c32)cn1` (stereo partly drawn) [Example 481, (7R)-2-{2-[1-(cyclopropylmethyl)-1H-indol-2-yl]-1-[(1-ethyl-1H-pyrazol-4-yl)methyl]-7-methoxy-1H-1,3-benzodiazole-5-carbonyl}-2-azabicyclo[2.2.1]heptan-7-amine]: the IC50 was determined as 20 nM.

`COc1cc(C(=O)N2C[C@H]3CC[C@@H]2[C@@H]3N)cc2nc(-c3cc4cc(Cl)ccc4n3C)n(CC3CN(c4ncccn4)C3)c12` [Example 62, (1R,4R,7R)-2-[2-(5-chloro-1-methyl-1H-indol-2-yl)-7-methoxy-1-{[1-(pyrimidin-2-yl)azetidin-3-yl]methyl}-1H-1,3-benzodiazole-5-carbonyl]-2-azabicyclo[2.2.1]heptan-7-amine]: the IC50 stood at 192 nM.

`COc1cc(C(=O)N2C[C@H]3CC[C@@H]2[C@@H]3N)cc2nc(-c3cc4cccnc4n3CC3CC3)n(CC3CN(c4cccnc4C#N)C3)c12` [Example 36, 3-[3-({5-[(1R,4R,7R)-7-amino-2-azabicyclo[2.2.1]heptane-2-carbonyl]-2-[1-(cyclopropylmethyl)-1H-pyrrolo[2,3-b]pyridin-2-yl]-7-methoxy-1H-1,3-benzodiazol-1-yl}methyl)azetidin-1-yl]pyridine-2-carbonitrile]: the IC50 was 92 nM.

On to `COc1cc(C(=O)N2C[C@H]3CC[C@@H]2[C@@H]3N)cc2nc(-c3cc4cccnc4n3CC3CC3)n(CC3CN(c4cccc5c4CNC5=O)C3)c12` [Example 55, 4-[3-({5-[(1R,4R,7R)-7-amino-2-azabicyclo[2.2.1]heptane-2-carbonyl]-2-[1-(cyclopropylmethyl)-1H-pyrrolo[2,3-b]pyridin-2-yl]-7-methoxy-1H-1,3-benzodiazol-1-yl}methyl)azetidin-1-yl]-2,3-dihydro-1H-isoindol-1-one], for which the IC50 was found to be 163 nM.

Take `COc1cc(C(=O)N2C[C@H](N)C[C@@H](F)C2)cc2nc(-c3cc4ccccc4n3CC3CC3)n(Cc3cn(C)nc3C)c12` [Example 512, (3R,5R)-1-{2-[1-(cyclopropylmethyl)-1H-indol-2-yl]-1-[(1,3-dimethyl-1H-pyrazol-4-yl)methyl]-7-methoxy-1H-1,3-benzodiazole-5-carbonyl}-5-fluoropiperidin-3-amine]: the IC50 came to 373 nM.

For `COc1cc(C(=O)N2CC3CCC2[C@@H]3N)cc2nc(-c3cc4cccnc4n3CC3CC3)n(CC3CN(C(=O)c4ccc(C#N)c(F)c4)C3)c12` (stereo partly drawn) [Example 459, 4-[3-({5-[(7R)-7-amino-2-azabicyclo[2.2.1]heptane-2-carbonyl]-2-[1-(cyclopropylmethyl)-1H-pyrrolo[2,3-b]pyridin-2-yl]-7-methoxy-1H-1,3-benzodiazol-1-yl}methyl)azetidine-1-carbonyl]-2-fluorobenzonitrile], the IC50 was 66 nM.

As for `COc1cc(C(=O)N2CC3CCC2[C@@H]3N)cc2nc(-c3cc4cccnc4n3CC3CC3)n(Cc3cn(C)nc3C)c12` (stereo partly drawn) [Example 497, (7R)-2-{2-[1-(cyclopropylmethyl)-1H-pyrrolo[2,3-b]pyridin-2-yl]-1-[(1,3-dimethyl-1H-pyrazol-4-yl)methyl]-7-methoxy-1H-1,3-benzodiazole-5-carbonyl}-2-azabicyclo[2.2.1]heptan-7-amine], the IC50 was found to be 109 nM.
